The record followed here is publication PMC11348715 (Chemical Science, 2024).

This data set in a line: Caco-2 permeability assay. The settings on record: human. The format is in vitro ADME. For orientation: Caco-2 cells form a polarised layer with tight junctions and transporters.

As a reminder, the Papp A→B is the apparent permeability from the apical to the basolateral side of a cell layer. Higher therefore signals fast passage.

`C[C@H]1O[C@@H](O[C@H]2[C@@H](O)C[C@H](O[C@H]3[C@@H](O)C[C@H](O[C@H]4CC[C@@]5(C)[C@H](CC[C@@H]6[C@@H]5C[C@@H](O)[C@]5(C)[C@@H](C7=CC(=O)OC7)CC[C@]65O)C4)O[C@@H]3C)O[C@@H]2C)C[C@H](O)[C@@H]1O` [digoxin] registered a Papp A→B at 10 µM of 1.59 ×10⁻⁶ cm/s.

`COCCc1ccc(OCC(O)CNC(C)C)cc1` (centres unmarked) [metoprolol]: the Papp A→B at 10 µM worked out at 19.8 ×10⁻⁶ cm/s.
